Test results published in PMC10714828, “Proteomic analysis of anti-MRSA activity of caerin 1.1/1.9 in a murine skin infection model and their in vitro anti-biofilm effects against Acinetobacter baumannii” (Microbiology Spectrum, 2023).
Read-outs that look alike come from different tables or passages of the source.

Assays:
E. coli (GDM1.176) = assay: MIC by micro-broth dilution (CLSI); assay type: cell-based, Escherichia coli; conditions: for inhibition of E. coli growth (in words): MIC test, Fig. 1E
Protocol: (§1) The MIC of F3 against different bacteria were measured by using a micro-broth dilution method developed by the Clinical and Laboratory Standards Institute ([33]). Briefly, the bacterial suspension with absorbance ranging from 0.08 to 0.10 was prepared and 100 µL of the bacterial suspension to a 96 U-shaped well culture plate. The dalbavancin HCl and sodium fusidate were prepared into 328 µM, polymyxin B was prepared at 840.7 µM with phosphate-buffered saline (PBS). Concentrations of F1 and F3 and of F-K were diluted to […] and 479.8 μM, and they were added into 96-well plates with concentration gradients of 310.5, 155.2, 77.6, 38.8, 19.4, 9.7, and 4.9 µM, respectively, with three replicates for each concentration, the equivalent volume of PBS was added as a growth control. The bacteria were cultured at 37°C for 24 h. The optical density (OD) value at 600 nm was measured with a MULTISKAN GO microplate spectrophotometer.

P. aeruginosa (GDM1.443) = assay: MIC by micro-broth dilution (CLSI); assay type: cell-based,  Pseudomonas aeruginosa; conditions: Fig. 1F; for inhibition of P. aeruginosa growth (in words): MIC test
Protocol: as §1

A. baumannii (GDM1.609) = assay: MIC by micro-broth dilution (CLSI); assay type: cell-based, Acinetobacter baumannii; conditions: Fig. 1D; for inhibitory activity on A. baumannii (in words): MIC test; for MIC: micro-broth dilution, 37°C, 24 h, OD 600 nm, three replicates
Protocol: as §1

[1] = pH 5.5; cited from earlier work
bacteria = conditions: after repeatedly in vitro culture; cited from earlier work
Excerpt: Moreover, caerin 1.1 has an additive antibacterial effect when used together with caerin 1.9. Caerin 1.1 and caerin 1.9 prepared in the form of a temperature-sensitive gel inhibit MRSA growth in a skin bacterial infecti ...

Compound	inhibition of E. coli growth (in words) (E. coli (GDM1.176))	inhibition of P. aeruginosa growth (in words) (P. aeruginosa (GDM1.443))	inhibitory activity on A. baumannii (in words) (A. baumannii (GDM1.609))	MIC (E. coli (GDM1.176); Escherichia coli, 24 h) [µM]	MIC (P. aeruginosa (GDM1.443); Pseudomonas aeruginosa, micro-broth dilution, 37°C, 24 h, OD 600 nm, three replicates) [µM]	MIC (A. baumannii (GDM1.609); Acinetobacter baumannii, read-out: MIC) [µM]	stability at pH and temperature [1]	MIC (A. baumannii (GDM1.609))	induction of bacterial resistance (bacteria)
PLLLLLPSLLTATL-NH2 [F-K, positive control antimicrobial peptide]	the best at inhibiting these two strains of bacteria	the best at inhibiting these two strains of bacteria	comparable inhibition						
CN[C@H]1C(=O)N[C@@H]2Cc3ccc(cc3)Oc3cc4cc(c3O[C@@H]3O[C@H](C(=O)O)[C@@H](O)[C@H](O)[C@H]3NC(=O)CCCCCCCCC(C)C)Oc3ccc(cc3Cl)[C@@H](O)[C@@H]3NC(=O)[C@H](NC(=O)[C@@H]4NC(=O)[C@@H](NC2=O)c2cc(cc(O)c2Cl)Oc2cc1ccc2O)c1ccc(O)c(c1)-c1c(O[C@H]2O[C@H](CO)[C@@H](O)[C@H](O)[C@@H]2O)cc(O)cc1[C@@H](C(=O)NCCCN(C)C)NC3=O [Dalbavancin, dalbavancin]	incapable of stopping these bacterial growth	incapable of stopping these bacterial growth	no inhibitory activity						
CC(=O)O[C@H]1C[C@@]2(C)[C@@H](C[C@@H](O)[C@H]3[C@@]4(C)CC[C@@H](O)[C@@H](C)[C@@H]4CC[C@@]32C)/C1=C(\CCC=C(C)C)C(=O)O [Sodium Fusidate, Sodium fusidate]	incapable of stopping these bacterial growth	incapable of stopping these bacterial growth	no inhibitory activity	78.7	78.7	19.7			
GLLSVLGSVAKHVLPHVVPVIAEHL-NH2 [F1, host defense peptide caerin 1.1, originally isolated from the Australian tree frog, synthesized]	suppression of the growth of E. coli and P. aeruginosa at high concentrations	suppression of the growth of E. coli and P. aeruginosa at high concentrations	comparable inhibition				stable at low pH (5.5–7.4) and room temperature	around 5 μM	
GLFGVLGSIAKHVLPHVVPVIAEKL-NH2 [F3, host defense peptide caerin 1.9, originally isolated from the Australian tree frog, synthesized]	suppression of the growth of E. coli and P. aeruginosa at high concentrations	suppression of the growth of E. coli and P. aeruginosa at high concentrations	comparable inhibition				stable at low pH (5.5–7.4) and room temperature	around 5 μM	did not induce bacterial resistance
